Source: patent publication US11815435B2, “Beta glucan immunopharmacodynamics” (HiberCell, Inc., priority 2017, dated 2023)

Key:
Assay type in all cases: in vivo, human
[1] = system: circulating immune complexes (CIC); assay: Circulating immune complex (CIC) formation in serum by ELISA after IV PGG; details: single dose PGG IV, at EOI
Protocol: IPD changes induced by yeast soluble β-glucan were evaluated in a Phase I healthy donor trial, which included three cohorts of 12 healthy human volunteers aged 18-65 years. In Cohort 1, subjects were administered a single dose of 4 mg/kg yeast soluble β-glucan by IV infusion over 2-3 hours. In Cohort 2, subjects were administered 4 mg/kg PGG by IV infusion over 2-3 hours once weekly for 3 weeks. Half of the subjects received premedications which included low dose corticosteroids (4 mg of dexamethasone, PO) and low-dose H1 antagonists (50 mg diphenhydramine.
Subjects were stratified/classified into subgroups based on pre-infusion ABA levels. ABA cutoff levels were selected based on prior studies and are only exemplary. Classification may include only 2 subgroups based on an IgG ABA cutoff level of 15 μg/ml, 20 μg/ml, 25, μg/ml, 30 μg/ml, 35 μg/ml, 40 μg/ml, 45 μg/ml or 50 μg/ml. Classification may also include 3, 4, 5 or more subgroups with each subgroup corresponding to a specific IgG ABA level range. For example, a 3 subgroup classification may include a Low-ABA subgroup encompassing ABA level ranges of <15 μg/ml, <20 μg/ml, <25 μg/ml or <30 μg/ml, a Mid-ABA subgroup encompassing a range having a low end ABA level of 20 μg/ml, 25 μg/ml, 30 μg/ml, 35 μg/ml, 40 μg/ml or 45 μg/ml and a high end ABA level of 30 μg/ml, 35 μg/ml, 40 μg/ml, 45 μg/ml, 50 μg/ml or 55 μg/ml, and a High-ABA subgroup encompassing ABA level ranges of >35 μg/ml, >40 μg/ml, >45 μg/ml, >50 μg/ml, >55 μg/ml, >60 μg/ml, >65 μg/ml or >70 μg/ml. As discussed in International Published Application No. WO2015084732A1, various ABA cutoff levels may be used for reasons such as differences in soluble β-glucan immunotherapy treatments and preferences regarding inclusiveness and exclusiveness of subgroups. […] Serum and cellular IPD markers were analyzed pre-infusion, 15 minutes, 30 minutes and 1 hour post-infusion, end of infusion (EOI) and 1 hour, 2 hours, 3 hours, 4 hours, 24 hours, 48 hours and 168 hours after EOI.
Total CIC formation was measured in serum by ELISA (Quidel).

[2] = system: SC5b-9; assay: Example 1: complement activation (SC5b-9) in the cancer subject; details: cancer subject after conversion to High-ABA subgroup; IMPRIME PGG 4 mg/kg once every 3 weeks
[3] = system: MIP-1b, IP-10, IL-1 RA and I-TAC; assay: Example 1: cytokine levels in the cancer subject
Protocol: Cytokine levels were also measured during the immunotherapy treatment. […] In addition, less frequent dosing is more convenient and economical for the subject.

[4] = system: IPD responses (SC5b-9, monocyte and neutrophil mobilization, MCP-1, CIC, IL-8); assay: Immunopharmacodynamic (IPD) responses taken together: dose and dosing interval comparison; details: for IPD response: mid ABA (20-50 μg/ml) subjects
Protocol: In Cohort 3, subjects received either 2 mg/kg PGG or 4 mg/kg PGG by IV infusion over 1-2 hours. The subjects were administered either dose of PGG once weekly for 2 weeks, then given a 2 week wash out (no PGG) and finally received one more dose of PGG (week 5). Adverse events and complete blood counts were evaluated. In addition, whole blood and serum was evaluated for the following at various time points post-infusion: PGG binding to immune cells (monocytes, neutrophils, B-cells, DC subsets), complement activation (C5a and Sc5b9), serum cytokine/chemokine levels, IgG ABA levels, flow cytometry of immune cells, circulating immune complex formation and Quantigene analysis of transcriptional profile. Table 1 lists each subject's pre-dose IgG ABA levels, PGG dose and whether they received premedications.
Thus, changes in IPD responses induced by PGG administration are dependent on ABA levels.
IPD responses were compared between subjects within subgroups administered doses of either 2 mg/kg and 4 mg/kg PGG. […] Therefore, an effective dose of PGG for Mid-ABA subjects is higher than an effective dose of PGG for High-ABA subjects. This is beneficial to High-ABA subjects because with a lower PGG dose, they will experience fewer adverse events.
Increasing the time between soluble β-glucan doses may not only promote repeated acute IPD responses but also enhance acute IPD responses, which may increase the effectiveness of soluble β-glucan therapy. Subjects in Cohort 3, as described above, were administered a dose of PGG once weekly for 2 weeks, then given a 2 week wash out (no PGG) and finally received one more dose of PGG (week 5).
Levels of CIC (FIG. 19), SC5b-9 (FIG. 20), neutrophil mobilization (FIG. 21), IL-8 (FIG. 22) and MCP-1 (FIG. 22) were also measured over the course of treatment. […] In some cases, acute IPD responses were only seen with the final dose—after the 2 week dosing interval. In other cases, the acute IPD responses were enhanced with the final dose. Thus, for some immunotherapies or even some individuals, increasing the amount of time between dosing with soluble β-glucan may lead to enhanced efficacy.

β(1,6)-[poly-(1,3)-D-glucopyranosyl]-poly-β(1,3)-D-glucopyranose [PGG]
increase in CIC ([1]; High-ABA subjects): the highest increase in CIC | increase in CIC ([1]; Low-ABA subjects): little increase in CIC | increase in CIC ([1]; Mid-ABA subjects): a greater increase in CIC | complement activation (SC5b-9 levels) [2]: Acute increases in complement activation | cytokine levels (MIP-1b, IP-10, IL-1 RA, I-TAC) ([3]; cancer subject after conversion to High-ABA group, IMPRIME PGG 4 mg/kg once every 3 weeks): acute IPD responses were seen | recurrence of acute IPD responses ([3]; cancer subject, soluble β-glucan administered once every 3 weeks (SC5b-9 and cytokines)): robust, acute IPD responses occurred with each administration | acute IPD responses (CIC, SC5b-9, neutrophil mobilization, IL-8, MCP-1) ([4]; Cohort 3, dosing after a 2 week dosing interval): generated or enhanced | changes in IPD responses ([4]; low-ABA subjects, PGG administration): very little to no changes in responses | IPD response ([4]; 2 mg/kg PGG): minimal response | IPD response ([4]; 4 mg/kg PGG): responded much better (on par with High-ABA subjects) | IPD responses, 2 mg/kg vs 4 mg/kg dose ([4]; subjects with ABA>50 μg/ml): similar
